The source of these data is patent US20240398811A1, “PRC2 INHIBITORS FOR USE IN TREATING BLOOD DISORDERS” (ORIC Pharmaceuticals, Inc., priority 2021, published 2024).

Sequence of purified human, His-tagged PRC2 complex (O75530 whole entry): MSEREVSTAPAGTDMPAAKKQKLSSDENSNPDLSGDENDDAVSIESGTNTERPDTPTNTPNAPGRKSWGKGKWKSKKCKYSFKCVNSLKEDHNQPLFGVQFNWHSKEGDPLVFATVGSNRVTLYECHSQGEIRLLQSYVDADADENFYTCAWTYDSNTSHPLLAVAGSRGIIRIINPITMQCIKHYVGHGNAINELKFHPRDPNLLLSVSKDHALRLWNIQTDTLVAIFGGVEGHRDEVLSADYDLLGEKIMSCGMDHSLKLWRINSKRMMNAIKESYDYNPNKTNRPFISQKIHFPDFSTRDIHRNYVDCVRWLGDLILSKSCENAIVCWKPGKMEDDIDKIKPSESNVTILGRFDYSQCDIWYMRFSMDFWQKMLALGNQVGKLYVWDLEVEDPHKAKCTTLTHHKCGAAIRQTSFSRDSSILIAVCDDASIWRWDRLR
Sequence of purified human, His-tagged PRC2 complex (Q15910 whole entry partner): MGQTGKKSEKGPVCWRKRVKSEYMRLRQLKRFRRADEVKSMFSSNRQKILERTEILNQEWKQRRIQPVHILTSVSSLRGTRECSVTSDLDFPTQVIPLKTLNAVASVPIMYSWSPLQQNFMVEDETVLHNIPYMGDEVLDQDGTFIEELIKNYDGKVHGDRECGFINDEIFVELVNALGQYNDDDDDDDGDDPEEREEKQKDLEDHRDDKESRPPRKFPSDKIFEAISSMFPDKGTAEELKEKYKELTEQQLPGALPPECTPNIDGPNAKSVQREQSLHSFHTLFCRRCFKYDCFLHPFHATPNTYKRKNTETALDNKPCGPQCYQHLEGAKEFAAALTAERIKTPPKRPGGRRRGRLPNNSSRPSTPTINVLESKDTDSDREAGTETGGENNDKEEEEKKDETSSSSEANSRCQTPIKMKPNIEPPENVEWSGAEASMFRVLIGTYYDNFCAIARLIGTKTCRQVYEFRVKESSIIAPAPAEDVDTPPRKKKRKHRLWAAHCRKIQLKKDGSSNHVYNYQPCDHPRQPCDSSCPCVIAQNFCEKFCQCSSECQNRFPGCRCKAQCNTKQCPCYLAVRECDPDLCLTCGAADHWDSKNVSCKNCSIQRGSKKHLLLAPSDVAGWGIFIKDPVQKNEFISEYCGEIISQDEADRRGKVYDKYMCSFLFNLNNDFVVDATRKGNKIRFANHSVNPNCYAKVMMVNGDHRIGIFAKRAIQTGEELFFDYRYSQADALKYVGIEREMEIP
Sequence of purified human, His-tagged PRC2 complex (Q15022 whole entry partner): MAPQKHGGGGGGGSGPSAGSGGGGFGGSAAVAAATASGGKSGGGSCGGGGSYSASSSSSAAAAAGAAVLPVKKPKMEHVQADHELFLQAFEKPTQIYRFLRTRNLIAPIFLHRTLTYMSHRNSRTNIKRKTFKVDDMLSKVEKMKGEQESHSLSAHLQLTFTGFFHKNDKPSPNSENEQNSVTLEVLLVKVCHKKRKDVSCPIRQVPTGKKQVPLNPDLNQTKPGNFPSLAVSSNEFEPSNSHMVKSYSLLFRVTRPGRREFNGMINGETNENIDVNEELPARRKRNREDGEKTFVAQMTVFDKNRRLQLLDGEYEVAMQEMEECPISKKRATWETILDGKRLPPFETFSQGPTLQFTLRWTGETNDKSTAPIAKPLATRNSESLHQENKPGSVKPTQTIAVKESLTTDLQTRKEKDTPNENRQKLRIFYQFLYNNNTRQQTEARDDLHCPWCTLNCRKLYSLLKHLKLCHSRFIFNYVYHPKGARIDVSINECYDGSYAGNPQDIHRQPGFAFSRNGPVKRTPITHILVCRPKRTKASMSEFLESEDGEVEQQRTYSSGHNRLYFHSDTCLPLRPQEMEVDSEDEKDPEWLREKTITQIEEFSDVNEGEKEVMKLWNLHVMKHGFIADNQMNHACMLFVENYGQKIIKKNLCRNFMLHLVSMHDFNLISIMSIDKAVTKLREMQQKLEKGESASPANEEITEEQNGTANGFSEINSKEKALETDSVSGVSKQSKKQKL
Sequence of purified human, His-tagged PRC2 complex (Q6ZN18 whole entry partner): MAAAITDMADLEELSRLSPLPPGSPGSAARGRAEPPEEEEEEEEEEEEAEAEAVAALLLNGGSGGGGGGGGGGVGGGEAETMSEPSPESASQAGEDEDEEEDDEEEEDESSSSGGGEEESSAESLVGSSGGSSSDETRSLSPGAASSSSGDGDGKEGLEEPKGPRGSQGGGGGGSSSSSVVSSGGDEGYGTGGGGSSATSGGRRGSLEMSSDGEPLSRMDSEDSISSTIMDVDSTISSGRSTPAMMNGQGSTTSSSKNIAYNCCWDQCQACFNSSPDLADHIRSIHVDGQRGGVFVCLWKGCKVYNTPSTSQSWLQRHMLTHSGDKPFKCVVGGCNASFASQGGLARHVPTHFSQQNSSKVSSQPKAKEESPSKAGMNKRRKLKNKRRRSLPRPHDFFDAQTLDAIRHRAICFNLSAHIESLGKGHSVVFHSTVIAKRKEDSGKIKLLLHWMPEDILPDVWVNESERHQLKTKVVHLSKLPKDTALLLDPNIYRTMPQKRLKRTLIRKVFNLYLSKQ
Sequence of purified human, His-tagged PRC2 complex (Q09028 whole entry partner): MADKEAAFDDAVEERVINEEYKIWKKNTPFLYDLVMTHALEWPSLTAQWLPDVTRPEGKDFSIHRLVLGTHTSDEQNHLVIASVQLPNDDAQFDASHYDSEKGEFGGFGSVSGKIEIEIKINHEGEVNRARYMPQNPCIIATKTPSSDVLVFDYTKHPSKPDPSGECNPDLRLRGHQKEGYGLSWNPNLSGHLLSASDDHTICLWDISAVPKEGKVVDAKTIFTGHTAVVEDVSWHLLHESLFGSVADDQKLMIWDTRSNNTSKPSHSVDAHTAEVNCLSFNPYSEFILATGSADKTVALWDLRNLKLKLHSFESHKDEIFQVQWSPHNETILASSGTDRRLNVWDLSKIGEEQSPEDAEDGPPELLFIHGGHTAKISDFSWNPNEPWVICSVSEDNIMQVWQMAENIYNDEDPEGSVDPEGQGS

The assay concerns the target purified human, His-tagged PRC2 complex (Homo sapiens (Human), UniProt O75530). The assay is described as follows: Hot Spot HMT assay, inhibition of PRC2 enzymatic activity. Format: biochemical. The settings on record: 10 nM PRC2 complex, 1 μM 3H-SAM, core histone H3, 10-point dose-response. From the text: The assay uses purified human, His-tagged PRC2 complex, including N-terminal His-tagged EZH2 enzyme, N-terminal Flag-tagged embryonic ectoderm development protein (EED), N-terminal His-tagged suppressor of zeste 12 (SUZ12), N-terminal His-tagged AEBP2, and N-terminal His-tagged RbAp48. In this assay, the transfer of the tritiated methyl group from radiolabeled S-adenosyl methionine (SAM) to purified core histone protein by EZH2 is quantitated after filtration to determine the activity of the core PRC2 complex in the presence and absence of compound.
The initial starting concentration for the serial dilutions of each compound was 1.0 μM. […] SAH (S-(5-adenosyl)-L-homocysteine) was used as a positive control for assay validation.
An aliquot of each serial dilution of test compound was added to deep 384 well plate using Acoustic Technology instrument (Echo 550, LabCyte) containing reaction buffer (50 mM Tris-HCl (pH 8.)), 0.01% Brij35, 1 mM EDTA, 1 mM DTT, 1 mM PMSF and 1% DMSO), 10 nM purified PRC2 complex and 0.05 mg/ml core histone H3 in a 5 μl volume. The reaction was mixed gently and then pre-incubated for 20 min at 30° C. The enzymatic reaction was initiated by adding 1 μM S-Adenosyl-L-[methyl-^3H]methionine and incubated for 1 hr at 30° C. After 1 hr, the reaction product was detected using a filter binding method and the amount of tritiated H3 core histone was quantitated using a scintillation counter. […] Key: A=<100 nM; B=>100 nM-<500 nM; and C=>500 nM.
The IC50 is the concentration at which inhibition is half-maximal. In turn, `Cc1nn(C)cc1-c1cnc(NCc2c(F)ccc3c2CCO3)n2cc(C#N)nc12` [Example 72, 8-(1,3-dimethyl-1H-pyrazol-4-yl)-5-(((5-fluoro-2,3-dihydrobenzofuran-4-yl)methyl)amino)imidazo[1,2-c]pyrimidine-2-carbonitrile] registered an IC50 of less than 100 nM. `Cc1nn(C[C@@H](C)O)c(C)c1-c1cnc(NCc2c(F)ccc3c2CCO3)n2cc(C#N)nc12` [Example 66, (R)-5-(((5-fluoro-2,3-dihydrobenzofuran-4-yl)methyl)amino)-8-(1-(2-hydroxypropyl)-3,5-dimethyl-1H-pyrazol-4-yl)imidazo[1,2-c]pyrimidine-2-carbonitrile] showed an IC50 of 100 to 500 nM. `COc1cc(-c2cnc(NCc3c(F)ccc4c3CCO4)n3cc(C#N)nc23)c(OC)cn1` [Example 125, 8-(2,5-dimethoxypyridin-4-yl)-5-(((5-fluoro-2,3-dihydrobenzofuran-4-yl)methyl)amino)imidazo[1,2-c]pyrimidine-2-carbonitrile] showed an IC50 of less than 100 nM. Take `Cc1ncccc1-c1cnc(NCc2c(F)ccc3c2CCO3)n2cc(C#N)nc12` [Example 105, 5-(((5-fluoro-2,3-dihydrobenzofuran-4-yl)methyl)amino)-8-(2-methylpyridin-3-yl)imidazo[1,2-c]pyrimidine-2-carbonitrile]: the IC50 was less than 100 nM. Regarding `Cc1ncccc1-c1cnc(NCc2c(F)ccc3occc23)n2cc(C(N)=O)nc12` [Example 12, 5-(((5-fluorobenzofuran-4-yl)methyl)amino)-8-(2-methylpyridin-3-yl)imidazo[1,2-c]pyrimidine-2-carboxamide], the IC50 is less than 100 nM. `Cc1ncc(-c2cnc(NCc3c(F)ccc4c3CCO4)n3cc(C#N)nc23)c(C)n1` [Example 71, 8-(2,4-dimethylpyrimidin-5-yl)-5-(((5-fluoro-2,3-dihydrobenzofuran-4-yl)methyl)amino)imidazo[1,2-c]pyrimidine-2-carbonitrile]: the IC50 is less than 100 nM. `Cc1cc(-c2cnc(NCc3c(Cl)ccc4c3CCO4)n3cc(C#N)nc23)n(C)n1` [Example 29, 5-(((5-chloro-2,3-dihydrobenzofuran-4-yl)methyl)amino)-8-(1,3-dimethyl-1H-pyrazol-5-yl)imidazo[1,2-c]pyrimidine-2-carbonitrile] returned an IC50 of more than 500 nM. As to `CN(C)CCn1cc(-c2cnc(NCc3c(F)ccc4c3CCO4)n3cc(C#N)nc23)cn1` [Example 102, 8-(1-(2-(dimethylamino)ethyl)-1H-pyrazol-4-yl)-5-(((5-fluoro-2,3-dihydrobenzofuran-4-yl)methyl)amino)imidazo[1,2-c]pyrimidine-2-carbonitrile], the 50% inhibitory concentration (IC50) fell in the range of 100 to 500 nM.

`CN(C)Cc1ncc(-c2cnc(NCc3c(F)ccc4c3CCO4)n3cc(C#N)nc23)cc1F` [Example 40, 8-(6-((dimethylamino)methyl)-5-fluoropyridin-3-yl)-5-(((5-fluoro-2,3-dihydrobenzofuran-4-yl)methyl)amino)imidazo[1,2-c]pyrimidine-2-carbonitrile] showed a half-maximal inhibitory concentration (IC50) of less than 100 nM. As for `COc1ncc(-c2cnc(NCc3c(F)ccc4c3CCO4)n3cc(C#N)nc23)cc1C#N` [Example 130, 8-(5-cyano-6-methoxypyridin-3-yl)-5-(((5-fluoro-2,3-dihydrobenzofuran-4-yl)methyl)amino)imidazo[1,2-c]pyrimidine-2-carbonitrile], the figure is 100 to 500 nM; as for `Cc1cc(C2CCCN2)ccc1-c1cnc(NCc2c(F)ccc3c2CCO3)n2cc(C#N)nc12` (single isomer, unassigned) [Example 214, 5-(((5-fluoro-2,3-dihydrobenzofuran-4-yl)methyl)amino)-8-(2-methyl-4-(pyrrolidin-2-yl)phenyl)imidazo[1,2-c]pyrimidine-2-carbonitrile], less than 100 nM. The compound `N#Cc1cn2c(NCc3c(F)ccc4c3CCO4)ncc(-c3ccc4c(c3)CNC4)c2n1` [Example 205, 5-(((5-fluoro-2,3-dihydrobenzofuran-4-yl)methyl)amino)-8-(isoindolin-5-yl)imidazo[1,2-c]pyrimidine-2-carbonitrile] returned an IC50 of 100 to 500 nM.

Compound `CC(c1ccc(-c2cnc(NCc3c(F)ccc4c3CCO4)n3cc(C#N)nc23)cc1)N1CCCC1` (stereo not shown) [Example 90, 5-(((5-fluoro-2,3-dihydrobenzofuran-4-yl)methyl)amino)-8-(4-(1-(pyrrolidin-1-yl)ethyl)phenyl)imidazo[1,2-c]pyrimidine-2-carbonitrile] gave an IC50 of less than 100 nM. `CN(C)C(=O)c1ccc(-c2cnc(NCc3c(F)ccc4c3CCO4)n3cc(C#N)nc23)cc1` [Example 180, 4-(2-cyano-5-(((5-fluoro-2,3-dihydrobenzofuran-4-yl)methyl)amino)imidazo[1,2-c]pyrimidin-8-yl)-N,N-dimethylbenzamide] gave an IC50 of less than 100 nM. For the compound `Cn1cc(-c2cnc(NCc3c(F)ccc4c3CCO4)n3cc(C#N)nc23)c(C#N)n1` [Example 224, 8-(3-cyano-1-methyl-1H-pyrazol-4-yl)-5-(((5-fluoro-2,3-dihydrobenzofuran-4-yl)methyl)amino)imidazo[1,2-c]pyrimidine-2-carbonitrile], the IC50 lay within 100 to 500 nM. `N#Cc1cn2c(NCc3c(F)ccc4c3CCO4)ncc(-c3ccc(C(=O)O)cc3)c2n1` [Example 183, 4-(2-cyano-5-(((5-fluoro-2,3-dihydrobenzofuran-4-yl)methyl)amino)imidazo[1,2-c]pyrimidin-8-yl)benzoic acid] gave an IC50 of less than 100 nM.

For the compound `N#Cc1cn2c(NCc3c(F)ccc4c3CCO4)ncc(-c3ccc(C4CCCO4)cc3)c2n1` (stereo not shown) [Example 162, 5-(((5-fluoro-2,3-dihydrobenzofuran-4-yl)methyl)amino)-8-(4-(tetrahydrofuran-2-yl)phenyl)imidazo[1,2-c]pyrimidine-2-carbonitrile], the IC50 is less than 100 nM.

Take `N#Cc1cn2c(NCc3c(F)ccc4c3CCO4)ncc(-c3cnn(CC(F)(F)F)c3)c2n1` [Example 108, 5-(((5-fluoro-2,3-dihydrobenzofuran-4-yl)methyl)amino)-8-(1-(2,2,2-trifluoroethyl)-1H-pyrazol-4-yl)imidazo[1,2-c]pyrimidine-2-carbonitrile]: the IC50 was less than 100 nM. The compound `Cc1ncccc1-c1cnc(NCc2c(F)ccc3occc23)n2cc(C#N)nc12` [Example 22, 5-(((5-fluorobenzofuran-4-yl)methyl)amino)-8-(2-methylpyridin-3-yl)imidazo[1,2-c]pyrimidine-2-carbonitrile] had an IC50 of 100 to 500 nM. For the compound `Cc1ccc(-c2cnc(NCc3c(F)ccc4c3CCO4)n3cc(C#N)nc23)c(C)n1` [Example 67, 8-(2,6-dimethylpyridin-3-yl)-5-(((5-fluoro-2,3-dihydrobenzofuran-4-yl)methyl)amino)imidazo[1,2-c]pyrimidine-2-carbonitrile], the IC50 is less than 100 nM. `Cc1cc(-c2cnc(NCc3c(F)ccc4c3CCO4)n3cc(C(=O)N(C)C)nc23)n(C)n1` [Example 21, 8-(1,3-dimethyl-1H-pyrazol-5-yl)-5-(((5-fluoro-2,3-dihydrobenzofuran-4-yl)methyl)amino)-N,N-dimethylimidazo[1,2-c]pyrimidine-2-carboxamide]: the IC50 is more than 500 nM. In turn, `CN(C)Cc1ccc(-c2cnc(NCc3c(F)ccc4c3CCO4)n3cc(C#N)nc23)c(Cl)c1F` [Example 83, 8-(2-chloro-4-((dimethylamino)methyl)-3-fluorophenyl)-5-(((5-fluoro-2,3-dihydrobenzofuran-4-yl)methyl)amino)imidazo[1,2-c]pyrimidine-2-carbonitrile] gave a half-maximal inhibitory concentration (IC50) of less than 100 nM.
